Values joined by “and” are separate entries in the source; they are usually repeats but may differ in a detail not shown here. Equal entries are not always repeated.
Assay: xn = mol fraction of the nth substance listed

CCO + O
Conditions	viscosity
293.15 K, 100 kPa, x1 = 0.3	2.81 mPa·s
293.15 K, 100 kPa, x1 = 0.4	2.616 mPa·s
293.15 K, 101 kPa, x2 = 0.25	2.385 mPa·s
293.15 K, 101 kPa, x2 = 0.75	2.114 mPa·s
293.15 K, 101.33 kPa, x1 = 0.04164	1.564 mPa·s
293.15 K, 101.33 kPa, x1 = 0.2068	2.942 mPa·s
293.15 K, 101.33 kPa, x1 = 0.235	2.947 mPa·s
293.15 K, 101.33 kPa, x1 = 0.2499	2.922 mPa·s
293.15 K, 101.33 kPa, x1 = 0.3697	2.694 mPa·s
293.15 K, 101.33 kPa, x1 = 0.4771	2.381 mPa·s
293.15 K, 101.33 kPa, x1 = 0.61	2.036 mPa·s
293.15 K, 101.33 kPa, x1 = 0.7787	1.643 mPa·s
293.15 K, 101.33 kPa, x2 = 0.0102	1.261 mPa·s
298 K, 101 kPa, x1 = 0.09	1.81 mPa·s
298 K, 101 kPa, x1 = 0.1	2.409 mPa·s
298 K, 101 kPa, x1 = 0.4	2.234 mPa·s
298 K, 101 kPa, x1 = 0.5	2.013 mPa·s
298.15 K, 100 kPa, x1 = 0.2	2.335 mPa·s
298.15 K, 100 kPa, x1 = 0.4	2.148 mPa·s
298.15 K, 100 kPa, x1 = 0.78	1.423 mPa·s
298.15 K, 101 kPa, x1 = 0.0112	0.991 mPa·s
298.15 K, 101 kPa, x1 = 0.0129	1.007 mPa·s
298.15 K, 101 kPa, x1 = 0.0197	1.072 mPa·s
298.15 K, 101 kPa, x1 = 0.025	1.127 mPa·s
298.15 K, 101 kPa, x1 = 0.0289	1.166 mPa·s
298.15 K, 101 kPa, x1 = 0.0348	1.225 mPa·s
298.15 K, 101 kPa, x1 = 0.0439	1.322 mPa·s
298.15 K, 101 kPa, x1 = 0.0515	1.405 mPa·s
298.15 K, 101 kPa, x1 = 0.0677	1.576 mPa·s
298.15 K, 101 kPa, x1 = 0.1003	1.889 mPa·s
298.15 K, 101 kPa, x1 = 0.1025	1.91 mPa·s
298.15 K, 101 kPa, x1 = 0.1139	2 mPa·s
298.15 K, 101 kPa, x1 = 0.1302	2.109 mPa·s
298.15 K, 101 kPa, x1 = 0.14	2.1 mPa·s
298.15 K, 101 kPa, x1 = 0.1597	2.247 mPa·s
298.15 K, 101 kPa, x1 = 0.1837	2.322 mPa·s
298.15 K, 101 kPa, x1 = 0.28	2.25 mPa·s
298.15 K, 101 kPa, x1 = 0.3515	2.248 mPa·s
298.15 K, 101 kPa, x1 = 0.37	2.14 mPa·s
298.15 K, 101 kPa, x1 = 0.4801	1.995 mPa·s
298.15 K, 101 kPa, x1 = 0.613	1.725 mPa·s
298.15 K, 101 kPa, x1 = 0.6923	1.58 mPa·s
298.15 K, 101 kPa, x1 = 0.8006	1.401 mPa·s
298.15 K, 101 kPa, x1 = 0.8018	1.399 mPa·s
298.15 K, 101 kPa, x1 = 0.905	1.239 mPa·s
298.15 K, 101 kPa, x1 = 0.9518	1.167 mPa·s
298.15 K, 101 kPa, x2 = 0.25	2.046 mPa·s
298.15 K, 101 kPa, x2 = 0.5	2.322 mPa·s
298.15 K, 101 kPa, x2 = 0.75	1.778 mPa·s
298.15 K, 101 kPa, x2 = 0.9584	1.108 mPa·s
298.15 K, 101.33 kPa, x1 = 0.0144	0.96 mPa·s
298.15 K, 101.33 kPa, x1 = 0.0205	1.013 mPa·s
298.15 K, 101.33 kPa, x1 = 0.1135	1.851 mPa·s
298.15 K, 101.33 kPa, x1 = 0.1414	2.129 mPa·s
298.15 K, 101.33 kPa, x1 = 0.1893	2.29 mPa·s
298.15 K, 101.33 kPa, x1 = 0.2151	2.327 mPa·s
298.15 K, 101.33 kPa, x1 = 0.3285	2.273 mPa·s
298.15 K, 101.33 kPa, x1 = 0.3308	2.273 mPa·s
298.15 K, 101.33 kPa, x1 = 0.3461	2.247 mPa·s
298.15 K, 101.33 kPa, x1 = 0.3745	2.226 mPa·s
298.15 K, 101.33 kPa, x1 = 0.3801	2.212 mPa·s
298.15 K, 101.33 kPa, x1 = 0.4246	2.104 mPa·s
298.15 K, 101.33 kPa, x1 = 0.4299	2.112 mPa·s
298.15 K, 101.33 kPa, x1 = 0.4836	1.995 mPa·s
298.2 K, 100 kPa, x2 = 0.387	1.854 mPa·s
298.2 K, 100 kPa, x2 = 0.399	1.676 mPa·s
298.2 K, 100 kPa, x2 = 0.655	2.18 mPa·s
298.2 K, 100 kPa, x2 = 0.674	2.18 mPa·s
300.65 K, 101 kPa, x1 = 0.86	1.1 mPa·s
303.15 K, 101 kPa, x2 = 0.25	1.767 mPa·s
303.15 K, 101 kPa, x2 = 0.5	1.961 mPa·s
303.15 K, 101.33 kPa, x1 = 0.04164	1.179 mPa·s
303.15 K, 101.33 kPa, x1 = 0.08905	1.574 mPa·s
303.15 K, 101.33 kPa, x1 = 0.1435	1.9 mPa·s
303.15 K, 101.33 kPa, x1 = 0.2499	2.061 mPa·s
303.15 K, 101.33 kPa, x1 = 0.2652	2.056 mPa·s
303.15 K, 101.33 kPa, x1 = 0.2811	2.068 mPa·s
303.15 K, 101.33 kPa, x1 = 0.4771	1.79 mPa·s
303.15 K, 101.33 kPa, x1 = 0.61	1.567 mPa·s
303.15 K, 101.33 kPa, x1 = 0.7787	1.311 mPa·s
303.15 K, 101.33 kPa, x2 = 0.0102	1.035 mPa·s
308 K, 101 kPa, x1 = 0.09	1.343 mPa·s
308.15 K, 101 kPa, x2 = 0.25	1.54 mPa·s
308.15 K, 101 kPa, x2 = 0.5	1.676 mPa·s
308.15 K, 101 kPa, x2 = 0.9584	0.939 mPa·s
313.15 K, 101 kPa, x2 = 0.25	1.349 mPa·s
313.15 K, 101 kPa, x2 = 0.5	1.448 mPa·s
313.15 K, 101.33 kPa, x1 = 0.04164	0.909 mPa·s
313.15 K, 101.33 kPa, x1 = 0.1435	1.383 mPa·s
313.15 K, 101.33 kPa, x1 = 0.2068	1.494 mPa·s
313.15 K, 101.33 kPa, x1 = 0.2499	1.509 mPa·s
313.15 K, 101.33 kPa, x1 = 0.2652	1.514 mPa·s
313.15 K, 101.33 kPa, x1 = 0.2811	1.529 mPa·s
313.15 K, 101.33 kPa, x1 = 0.61	1.223 mPa·s
313.15 K, 101.33 kPa, x1 = 0.7787	1.05 mPa·s
317.15 K, 101 kPa, x1 = 0.86	0.779 mPa·s
318.15 K, 101 kPa, x2 = 0.25	1.185 mPa·s
318.15 K, 101 kPa, x2 = 0.5	1.255 mPa·s
318.15 K, 101 kPa, x2 = 0.9413	0.8181 mPa·s
323.15 K, 100 kPa, x1 = 0.2	1.113 mPa·s and 1.08 mPa·s
323.15 K, 100 kPa, x1 = 0.3	1.108 mPa·s
323.15 K, 100 kPa, x1 = 0.4	1.113 mPa·s and 1.072 mPa·s
323.15 K, 100 kPa, x1 = 0.6	0.9548 mPa·s and 0.9408 mPa·s
323.15 K, 100 kPa, x1 = 0.8	0.8101 mPa·s
323.15 K, 101 kPa, x2 = 0.25	1.055 mPa·s
323.15 K, 101 kPa, x2 = 0.5	1.102 mPa·s
323.15 K, 101 kPa, x2 = 0.75	0.89 mPa·s
323.15 K, 101.33 kPa, x1 = 0.04164	0.747 mPa·s
323.15 K, 101.33 kPa, x1 = 0.08905	0.924 mPa·s
323.15 K, 101.33 kPa, x1 = 0.1435	1.061 mPa·s
323.15 K, 101.33 kPa, x1 = 0.2068	1.152 mPa·s
323.15 K, 101.33 kPa, x1 = 0.235	1.157 mPa·s
323.15 K, 101.33 kPa, x1 = 0.2499	1.162 mPa·s
323.15 K, 101.33 kPa, x1 = 0.2652	1.177 mPa·s
323.15 K, 101.33 kPa, x1 = 0.2811	1.18 mPa·s
323.15 K, 101.33 kPa, x1 = 0.3697	1.162 mPa·s
323.15 K, 101.33 kPa, x1 = 0.4771	1.089 mPa·s
323.15 K, 101.33 kPa, x1 = 0.61	0.981 mPa·s
323.15 K, 101.33 kPa, x1 = 0.7787	0.866 mPa·s
323.15 K, 101.33 kPa, x2 = 0.0102	0.729 mPa·s

COCCOCCOCCOCCOC + O
viscosity [mPa·s], 101 kPa
Conditions	298 K	303.15 K	308.15 K	313.15 K	318.15 K	323.15 K
x1 = 0.00562	–	1.177	1.049	0.937	0.839	0.767
x1 = 0.0075	1.323	–	–	–	–	–
x1 = 0.0142	1.533	–	–	–	–	–
x1 = 0.02904	–	2.119	1.844	1.618	1.431	1.275
x1 = 0.0297	2.433	–	–	–	–	–
x1 = 0.0419	3.198	–	–	–	–	–
x1 = 0.04576	–	3.14	2.677	2.309	1.992	1.766
x1 = 0.0593	4.289	–	–	–	–	–
x1 = 0.07654	–	4.235	3.566	3.043	2.621	2.273
x1 = 0.0784	5.24	–	–	–	–	–
x1 = 0.1006	–	4.915	4.126	3.487	2.994	2.593
x1 = 0.1139	6.253	–	–	–	–	–
x1 = 0.1272	–	5.245	4.392	3.729	3.181	2.758
x1 = 0.1398	6.469	–	–	–	–	–
x1 = 0.1512	–	5.331	4.475	3.802	3.273	2.838
x1 = 0.1543	6.411	–	–	–	–	–
x1 = 0.2009	–	5.151	4.371	3.744	3.243	2.839
x1 = 0.2493	–	4.865	4.154	3.6	3.128	2.76
x1 = 0.2986	–	4.539	3.909	3.397	2.982	–
x1 = 0.3508	–	4.269	3.695	3.228	2.845	2.528
x1 = 0.4016	–	4.026	3.508	3.089	2.735	2.433
x1 = 0.5033	–	3.66	3.22	2.853	2.543	2.281
x1 = 0.5975	–	3.428	3.025	2.698	2.42	2.183
x1 = 0.7029	–	3.236	2.883	2.577	2.323	–
x1 = 0.8018	–	3.113	2.78	2.497	2.257	2.047
x1 = 0.8532	–	3.066	2.744	2.467	2.231	2.029
x1 = 0.9025	–	3.019	2.704	–	2.203	–
x1 = 0.9447	–	2.982	2.679	2.414	2.182	1.99
